Test results as given in ChEMBL document CHEMBL1126978, “Assessment of the biological value of the 11-hydroxy group of the azalides” (1993).
Converted amounts (≈) assume the structure as drawn.

Legend:
Format in all cases: functional
Klebsiella pneumoniae [1] = assay: Tested in vitro for antimicrobial activity against Klebsiella pneumoniae MB 4005; value ranges from 32-64 ug/mL
Staphylococcus aureus [2] = assay: Tested in vitro for antimicrobial activity against Staphylococcus aureus MB 2865; value ranges from 0.25-0.5 ug/mL
Streptococcus pyogenes [3] = assay: Tested in vitro for antimicrobial activity against Streptococcus pyogenes MB 2874; value ranges from 0.03-0.06 ug/mL
Escherichia coli [4] = assay: Tested in vitro for antimicrobial activity against Escherichia coli MB 2884; value ranges from 32-64 ug/mL
Streptococcus pyogenes [5] = assay: Tested in vitro for antimicrobial activity against inducibly macrolide resistant Streptococcus pyogenes MB 5406
[6] = tested on: Staphylococcus haemolyticus; assay: Tested in vitro for antimicrobial activity against Staphylococcus haemolyticus MB 5412
Haemophilus influenzae [7] = assay: Tested in vitro for antimicrobial activity against Haemophilus influenzae MB 5363; value ranges from 4-8 ug/mL
Enterobacter cloacae [8] = assay: Tested in vitro for antimicrobial activity against Enterobacter cloacae CL 4298; value ranges from 32-64 ug/mL
Enterococcus faecalis [9] = assay: Tested in vitro for antimicrobial activity against Enterococcus faecalis MB 5407; value ranges from 1-2 ug/mL
Streptococcus pyogenes [10] = assay: Tested in vitro for antimicrobial activity against constitutively macrolide resistant Streptococcus pyogenes MB 5403
[11] = tested on: Staphylococcus haemolyticus; assay: Tested in vitro for antimicrobial activity against Staphylococcus haemolyticus MB 5412; value ranges from 8-32 ug/mL
Haemophilus influenzae [12] = assay: Tested in vitro for antimicrobial activity against Haemophilus influenzae MB 5363; value ranges from 32->128 ug/mL
Klebsiella pneumoniae [13] = assay: Tested in vitro for antimicrobial activity against Klebsiella pneumoniae MB 4005; value ranges from 64->128 ug/mL
Enterobacter cloacae [14] = assay: Tested in vitro for antimicrobial activity against Enterobacter cloacae CL 4298; value ranges from 64->128 ug/mL
Staphylococcus aureus [15] = assay: Tested in vitro for antimicrobial activity against Staphylococcus aureus MB 2865; value ranges from 16-64 ug/mL
Streptococcus pyogenes [16] = assay: Tested in vitro for antimicrobial activity against Streptococcus pyogenes MB 2874; value ranges from 1-4 ug/mL
Escherichia coli [17] = assay: Tested in vitro for antimicrobial activity against Escherichia coli MB 2884; value ranges from 64->128 ug/mL
Enterococcus faecalis [18] = assay: Tested in vitro for antimicrobial activity against Enterococcus faecalis MB 5407; value ranges from 64-128 ug/mL
Escherichia coli [19] = assay: Tested in vitro for antimicrobial activity against Escherichia coli MB 2884; value ranges from 8-16 ug/mL
Streptococcus pyogenes [20] = assay: Tested in vitro for antimicrobial activity against inducibly macrolide resistant Streptococcus pyogenes MB 5406; value ranges from 8-16 ug/mL
Enterobacter cloacae [21] = assay: Tested in vitro for antimicrobial activity against Enterobacter cloacae CL 4298; value ranges from 4-8 ug/mL
[22] = tested on: Staphylococcus haemolyticus; assay: Tested in vitro for antimicrobial activity against Staphylococcus haemolyticus MB 5412; value ranges from 0.5-1 ug/mL
Enterococcus faecalis [23] = assay: Tested in vitro for antimicrobial activity against Enterococcus faecalis MB 5407; value ranges from 4-8 ug/mL
Staphylococcus aureus [24] = assay: Tested in vitro for antimicrobial activity against Staphylococcus aureus MB 2865; value ranges from 2-4 ug/mL
Klebsiella pneumoniae [25] = assay: Tested in vitro for antimicrobial activity against Klebsiella pneumoniae MB 4005
Haemophilus influenzae [26] = assay: Tested in vitro for antimicrobial activity against Haemophilus influenzae MB 5363; value ranges from 2-4 ug/mL
Staphylococcus aureus [27] = assay: Tested in vitro for antimicrobial activity against Staphylococcus aureus MB 2865; value ranges from 0.25-1 ug/mL
Klebsiella pneumoniae [28] = assay: Tested in vitro for antimicrobial activity against Klebsiella pneumoniae MB 4005; value ranges from 2-4 ug/mL
Escherichia coli [29] = assay: Tested in vitro for antimicrobial activity against Escherichia coli MB 2884; value ranges from 2-4 ug/mL
[30] = tested on: Staphylococcus haemolyticus; assay: Tested in vitro for antimicrobial activity against Staphylococcus haemolyticus MB 5412; value ranges from 0.125-0.25 ug/mL
Enterococcus faecalis [31] = assay: Tested in vitro for antimicrobial activity against Enterococcus faecalis MB 5407; value ranges from 2-4 ug/mL
Enterobacter cloacae [32] = assay: Tested in vitro for antimicrobial activity against Enterobacter cloacae CL 4298; value ranges from 2-4 ug/mL
Streptococcus pyogenes [33] = assay: Tested in vitro for antimicrobial activity against inducibly macrolide resistant Streptococcus pyogenes MB 5406; value ranges from 16-32 ug/mL
Escherichia coli [34] = assay: Tested in vitro for antimicrobial activity against Escherichia coli MB 2884
[35] = tested on: Staphylococcus haemolyticus; assay: Tested in vitro for antimicrobial activity against Staphylococcus haemolyticus MB 5412; value ranges from 0.25-0.5 ug/mL
Staphylococcus aureus [36] = assay: Tested in vitro for antimicrobial activity against Staphylococcus aureus MB 2865
Enterobacter cloacae [37] = assay: Tested in vitro for antimicrobial activity against Enterobacter cloacae CL 4298
Enterobacter cloacae [38] = assay: Tested in vitro for antimicrobial activity against Enterobacter cloacae CL 4298; value ranges from 0.5-2 ug/mL
Staphylococcus aureus [39] = assay: Tested in vitro for antimicrobial activity against Staphylococcus aureus MB 2865; value ranges from 0.5-1 ug/mL
Klebsiella pneumoniae [40] = assay: Tested in vitro for antimicrobial activity against Klebsiella pneumoniae MB 4005; value ranges from 1-2 ug/mL
Haemophilus influenzae [41] = assay: Tested in vitro for antimicrobial activity against Haemophilus influenzae MB 5363; value ranges from 1-4 ug/mL
Escherichia coli [42] = assay: Tested in vitro for antimicrobial activity against Escherichia coli MB 2884; value ranges from 1-2 ug/mL

CC[C@H]1OC(=O)[C@H](C)[C@@H](O[C@H]2C[C@@](C)(OC)[C@@H](O)[C@H](C)O2)[C@H](C)[C@@H](O[C@@H]2O[C@H](C)C[C@H](N(C)C)[C@H]2O)[C@](C)(O)C[C@@H](C)C(=O)[C@H](C)[C@@H](O)[C@]1(C)O [ERYTHROMYCIN]
MIC (Klebsiella pneumoniae [1]): 32 µg/mL (≈ 43.6 µM)
MIC (Staphylococcus aureus [2]): 0.25 µg/mL (≈ 0.341 µM)
MIC (Streptococcus pyogenes [3]): 0.03 µg/mL (≈ 0.0409 µM)
MIC (Escherichia coli [4]): 32 µg/mL (≈ 43.6 µM)
MIC (Streptococcus pyogenes [5]): 32 µg/mL (≈ 43.6 µM)
MIC [6]: 0.125 µg/mL (≈ 0.17 µM)
MIC (Haemophilus influenzae [7]): 4 µg/mL (≈ 5.45 µM)
MIC (Enterobacter cloacae [8]): 32 µg/mL (≈ 43.6 µM)
MIC (Enterococcus faecalis [9]): 1 µg/mL (≈ 1.36 µM)
MIC (Streptococcus pyogenes [10]): > 128 µg/mL

CC[C@H]1OC(=O)[C@H](C)[C@@H](O[C@H]2C[C@@](C)(OC)[C@@H](O)[C@H](C)O2)[C@H](C)[C@@H](O[C@@H]2O[C@H](C)C[C@H](N(C)C)[C@H]2O)[C@](C)(O)C[C@@H](C)/N=C2\O[C@]1(C)C=C2C
MIC [11]: 8 µg/mL (≈ 11.2 µM)
MIC (Haemophilus influenzae [12]): 32 µg/mL (≈ 44.9 µM)
MIC (Klebsiella pneumoniae [13]): 64 µg/mL (≈ 89.8 µM)
MIC (Enterobacter cloacae [14]): 64 µg/mL (≈ 89.8 µM)
MIC (Streptococcus pyogenes [5]): > 128 µg/mL
MIC (Staphylococcus aureus [15]): 16 µg/mL (≈ 22.4 µM)
MIC (Streptococcus pyogenes [16]): 1 µg/mL (≈ 1.4 µM)
MIC (Escherichia coli [17]): 64 µg/mL (≈ 89.8 µM)
MIC (Enterococcus faecalis [18]): 64 µg/mL (≈ 89.8 µM)
MIC (Streptococcus pyogenes [10]): > 128 µg/mL

CC[C@H]1OC(=O)[C@H](C)[C@@H](O[C@H]2C[C@@](C)(OC)[C@@H](O)[C@H](C)O2)[C@H](C)[C@@H](O[C@@H]2O[C@H](C)C[C@H](N(C)C)[C@H]2O)[C@](C)(O)C[C@@H](C)N(C)C/C(C)=C/[C@]1(C)O
MIC (Escherichia coli [19]): 8 µg/mL (≈ 10.9 µM)
MIC (Streptococcus pyogenes [3]): 0.03 µg/mL (≈ 0.041 µM)
MIC (Streptococcus pyogenes [20]): 8 µg/mL (≈ 10.9 µM)
MIC (Enterobacter cloacae [21]): 4 µg/mL (≈ 5.47 µM)
MIC (Haemophilus influenzae [7]): 4 µg/mL (≈ 5.47 µM)
MIC [22]: 0.5 µg/mL (≈ 0.684 µM)
MIC (Enterococcus faecalis [23]): 4 µg/mL (≈ 5.47 µM)
MIC (Staphylococcus aureus [24]): 2 µg/mL (≈ 2.74 µM)
MIC (Klebsiella pneumoniae [25]): 8 µg/mL (≈ 10.9 µM)
MIC (Streptococcus pyogenes [10]): > 128 µg/mL

CC[C@H]1OC(=O)[C@H](C)[C@@H](O[C@H]2C[C@@](C)(OC)[C@@H](O)[C@H](C)O2)[C@H](C)[C@@H](O[C@@H]2O[C@H](C)C[C@H](N(C)C)[C@H]2O)[C@](C)(O)C[C@@H](C)N(C)C[C@@H](C)C[C@]1(C)O
MIC (Haemophilus influenzae [26]): 2 µg/mL (≈ 2.73 µM)
MIC (Streptococcus pyogenes [3]): 0.03 µg/mL (≈ 0.0409 µM)
MIC (Streptococcus pyogenes [20]): 8 µg/mL (≈ 10.9 µM)
MIC (Staphylococcus aureus [27]): 0.25 µg/mL (≈ 0.341 µM)
MIC (Klebsiella pneumoniae [28]): 2 µg/mL (≈ 2.73 µM)
MIC (Escherichia coli [29]): 2 µg/mL (≈ 2.73 µM)
MIC [30]: 0.125 µg/mL (≈ 0.171 µM)
MIC (Enterococcus faecalis [31]): 2 µg/mL (≈ 2.73 µM)
MIC (Enterobacter cloacae [32]): 2 µg/mL (≈ 2.73 µM)
MIC (Streptococcus pyogenes [10]): > 128 µg/mL

CC[C@H]1OC(=O)[C@H](C)[C@@H](O[C@H]2C[C@@](C)(OC)[C@@H](O)[C@H](C)O2)[C@H](C)[C@@H](O[C@@H]2O[C@H](C)C[C@H](N(C)C)[C@H]2O)[C@](C)(O)C[C@@H](C)N(C)C[C@H](C)C[C@]1(C)O
MIC (Streptococcus pyogenes [33]): 16 µg/mL (≈ 21.8 µM)
MIC (Streptococcus pyogenes [3]): 0.03 µg/mL (≈ 0.0409 µM)
MIC (Escherichia coli [34]): 4 µg/mL (≈ 5.46 µM)
MIC (Klebsiella pneumoniae [28]): 2 µg/mL (≈ 2.73 µM)
MIC [35]: 0.25 µg/mL (≈ 0.341 µM)
MIC (Haemophilus influenzae [7]): 4 µg/mL (≈ 5.46 µM)
MIC (Staphylococcus aureus [36]): 2 µg/mL (≈ 2.73 µM)
MIC (Enterococcus faecalis [23]): 4 µg/mL (≈ 5.46 µM)
MIC (Enterobacter cloacae [37]): 2 µg/mL (≈ 2.73 µM)
MIC (Streptococcus pyogenes [10]): > 128 µg/mL

CC[C@H]1OC(=O)[C@H](C)[C@@H](O[C@H]2C[C@@](C)(OC)[C@@H](O)[C@H](C)O2)[C@H](C)[C@@H](O[C@@H]2O[C@H](C)C[C@H](N(C)C)[C@H]2O)[C@](C)(O)C[C@@H](C)N(C)C[C@H](C)[C@@H](O)[C@]1(C)O [L-701677]
MIC (Enterobacter cloacae [38]): 0.5 µg/mL (≈ 0.668 µM)
MIC (Streptococcus pyogenes [3]): 0.03 µg/mL (≈ 0.0401 µM)
MIC (Streptococcus pyogenes [20]): 8 µg/mL (≈ 10.7 µM)
MIC (Staphylococcus aureus [39]): 0.5 µg/mL (≈ 0.668 µM)
MIC (Klebsiella pneumoniae [40]): 1 µg/mL (≈ 1.34 µM)
MIC [30]: 0.125 µg/mL (≈ 0.167 µM)
MIC (Enterococcus faecalis [31]): 2 µg/mL (≈ 2.67 µM)
MIC (Haemophilus influenzae [41]): 1 µg/mL (≈ 1.34 µM)
MIC (Escherichia coli [42]): 1 µg/mL (≈ 1.34 µM)
MIC (Streptococcus pyogenes [10]): > 128 µg/mL
